This passage reports MIC results from patent US12215082B1 (priority 2023, dated 2025).

In general, MIC refers to the lowest concentration found to suppress growth.

SMILES strings stand for the structures.

In the experiment the test system is Mycobacterium tuberculosis H37Rv (susceptible). The experiment in a line: Resazurin Microplate Assay (REMA), anti-tubercular activity, H37Rv strain. In kind it is cell-based. The following applies: 192 h, read-out: MIC Susceptible (H37Rv). Background: Alamar Blue is a resazurin reagent that responds to reducing activity.
In the case of `O=C(C[n+]1ccc(/C=N/O)cc1)c1ccccc1.[Br-]` [Compound 3a, (E)-4-((Hydroxyimino)methyl)-1-(2-oxo-2-phenylethyl)pyridin-1-ium bromide], the MIC was 32 µg/mL.

Regarding `O=C(C[n+]1ccc(/C=N/O)cc1)c1ccc(F)cc1.[Br-]` [Compound 3c, (E)-1-(2-(4-Fluorophenyl)-2-oxoethyl)-4-((hydroxyimino)methyl)pyridin-1-ium bromide], the MIC was 32 µg/mL.

For `O=C(C[n+]1ccc(/C=N/O)cc1)c1ccc(Br)cc1.[Br-]` [Compound 3b, (E)-1-(2-(4-Bromophenyl)-2-oxoethyl)-4-((hydroxyimino)methyl)pyridin-1-ium bromide], the MIC amounted to 32 µg/mL.

Take `O=C(C[n+]1ccc(/C=N/O)cc1)c1ccccc1[N+](=O)[O-].[Br-]` [Compound 3e, (E)-4-((Hydroxyimino)methyl)-1-(2-(2-nitrophenyl)-2-oxoethyl)pyridin-1-ium bromide]: the minimal inhibitory concentration (MIC) came out at 64 µg/mL.

Consider `N#Cc1ccc(C(=O)C[n+]2ccc(/C=N/O)cc2)cc1.[Br-]` [Compound 3d, (E)-1-(2-(4-Cyanophenyl)-2-oxoethyl)-4-((hydroxyimino)methyl)pyridin-1-ium bromide], for which the minimum inhibitory concentration (MIC) came to 16 µg/mL.
